Structures are written as SMILES. The source made the active and inactive calls. No rule for the calls is given here.

This assay deals with Sphingosine 1-phosphate receptor 1 (Homo sapiens) (UniProt P21453). Put plainly: direct activation of human S1P1 – cell-based, agonist mode, 60K MLSMR set, dose response (AID 468). The note with it: S1P1 agonist cell-based assay.
Sphingosine 1-phosphate receptor 1 (Homo sapiens), sequence (P21453 whole entry, looked up): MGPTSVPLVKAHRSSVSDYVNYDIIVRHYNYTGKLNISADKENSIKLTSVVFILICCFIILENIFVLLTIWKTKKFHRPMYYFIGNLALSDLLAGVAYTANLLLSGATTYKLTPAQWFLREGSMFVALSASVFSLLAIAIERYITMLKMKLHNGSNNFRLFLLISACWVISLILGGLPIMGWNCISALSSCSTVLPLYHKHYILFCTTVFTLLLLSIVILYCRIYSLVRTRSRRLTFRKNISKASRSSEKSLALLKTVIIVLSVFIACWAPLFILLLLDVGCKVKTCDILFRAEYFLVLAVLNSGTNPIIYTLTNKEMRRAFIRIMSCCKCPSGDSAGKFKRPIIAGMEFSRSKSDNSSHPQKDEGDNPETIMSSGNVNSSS
For the compound `Cc1[nH]nc2c1C1(C(=O)N(Cc3ccc(Cl)cc3)c3ccccc31)C(C#N)=C(N)O2` (stereo not drawn), the EC50 result was “inactive”.

Consider `CC(=O)Oc1ccc(N2C(=O)C3C(C2=O)C2(C)C=CC3(C)O2)cc1` (stereo not drawn), for which the EC50 result was “inactive”.

In the case of `CCC(=NCCOc1ccc(Cl)cc1)c1c(O)n(C)c(=O)n(C)c1=O`, the EC50 is 5.04 µM.

In the case of `CC1=C(C(=O)OCc2ccc3c(c2)OCO3)C(c2ccc(F)cc2)NC(=O)N1` (stereo not drawn), the EC50 was 0.437 µM.

`CCC(=NCc1ccc2c(c1)OCO2)c1c(O)n(C2CCCCC2)c(=O)[nH]c1=O`: the EC50 was 6.81 µM.

With `COc1ccc(/C=N/O)cc1COc1ccc(NC(C)=O)cc1`, the EC50 was > 95 µM (inactive).

On to `O=C1C2C3C=CC(CO)(O3)C2C(=O)N1c1ccccc1-c1ccccc1` (stereo not drawn), for which the EC50 is 5.47 µM.

For the compound `C/C(N)=C(/C#N)C(=O)CSc1nnc(SCc2ccc(Cl)cc2)s1`, the EC50 is 8.95 µM.

For the compound `CC1(C)CC(=O)C(C=Nc2ccc3[nH]ncc3c2)=C(O)C1`, the EC50 was 5.07 µM.

On to `CC1=C(C(=O)OCc2ccc3c(c2)OCO3)C(c2ccccc2)NC(=O)N1` (stereo not drawn), for which the EC50 is 1.84 µM.

On to `CCCCc1ccc(C2C(C#N)=C(N)SC(N)=C2C#N)s1`, for which the EC50 result was “inactive”.

On to `COc1ccc(/C(O)=C2/C(=O)C(=O)N(CC3CCCO3)C2c2cccc(OC)c2)cc1` (stereo not drawn), for which the EC50 is > 95.1 µM (inactive).

As to `C/C(N)=C(/C#N)C(=O)CSc1nc2cc(Cl)ccc2s1`, the EC50 result is “inactive”.

Turning to `CCOC(=O)c1cccc2c1-c1ccccc1/C2=N/O`, the EC50 result is “inactive”.

For the compound `CCOc1ccc(C(C)=O)cc1N1C(=O)C2C3C=CC(O3)C2C1=O` (stereo not drawn), the EC50 result was “inactive”.

As for `COC(=O)CC1SC(=O)NC1=Nc1ccccc1` (stereo not drawn), the EC50 was > 95 µM (inactive).

As to `CCC(=NC(C)c1ccccc1)c1c(O)n(C)c(=O)n(C)c1=O` (stereo not drawn), the EC50 entry is “inactive”.

For the compound `COc1ccc(N2C(=O)CC(Sc3ncn[nH]3)C2=O)c(OC)c1` (stereo not drawn), the EC50 entry was “inactive”.

Values taken from PubChem BioAssay AID468 (The Scripps Research Institute Molecular Screening Center, 2006).
